Measurements as given in patent US12077503B2, “Substituted cyclic amides and their use as herbicides” (FMC CORPORATION, priority 2015, dated 2024).

Assays:
Type in all cases: in vivo
[1] = system: wheat (Triticum aestivum); test: Test A postemergence; settings: postemergence; for Wheat plant response rating: 125 g ai/ha, visual injury rating on 0 to 100 scale (0 no effect, 100 complete control), approx. 10 d; for Plant response rating, Wheat: 500 g ai/ha, 0 to 100 scale, 0 no effect, 100 complete control
Method in brief: (§1)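 Each rating is a visual injury score from 0 to 100 given about 10 d after treatment, judged against untreated controls kept alongside in the greenhouse. In loam soil–sand blend, seeds got a preemergence directed soil spray, while postemergence plants were 2 to 10 cm tall at spraying.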

[2] = system: pigweed (Amaranthus retroflexus); test: Test A postemergence; settings: postemergence; for Pigweed plant response rating: 125 g ai/ha, visual injury rating on 0 to 100 scale (0 no effect, 100 complete control), approx. 10 d; for Plant response rating, Pigweed: 500 g ai/ha, 0 to 100 scale, 0 no effect, 100 complete control
Method in brief: as §1

[3] = system: ryegrass, Italian (Italian ryegrass, Lolium multiflorum); test: Test A postemergence; settings: postemergence; for Ryegrass, Italian plant response rating: 125 g ai/ha, visual injury rating on 0 to 100 scale (0 no effect, 100 complete control), approx. 10 d; for Plant response rating, Ryegrass, Italian: 500 g ai/ha, 0 to 100 scale, 0 no effect, 100 complete control
Method in brief: as §1

[4] = system: ragweed (common ragweed, Ambrosia elatior); test: Test A postemergence; settings: postemergence; for Ragweed plant response rating: 125 g ai/ha, visual injury rating on 0 to 100 scale (0 no effect, 100 complete control), approx. 10 d; for Plant response rating, Ragweed: 500 g ai/ha, 0 to 100 scale, 0 no effect, 100 complete control
Method in brief: as §1

[5] = system: Kochia (Kochia scoparia); test: Test A postemergence; settings: postemergence; for Kochia plant response rating: 125 g ai/ha, visual injury rating on 0 to 100 scale (0 no effect, 100 complete control), approx. 10 d; for Plant response rating, Kochia: 500 g ai/ha, 0 to 100 scale, 0 no effect, 100 complete control
Method in brief: as §1

[6] = system: blackgrass (Alopecurus myosuroides); test: Test A postemergence; settings: postemergence; for Blackgrass plant response rating: 125 g ai/ha, visual injury rating on 0 to 100 scale (0 no effect, 100 complete control), approx. 10 d; for Plant response rating, Blackgrass: 500 g ai/ha, 0 to 100 scale, 0 no effect, 100 complete control
Method in brief: as §1

[7] = system: corn (Zea mays); test: Test A postemergence; settings: postemergence; for Corn plant response rating: 125 g ai/ha, visual injury rating on 0 to 100 scale (0 no effect, 100 complete control), approx. 10 d; for Plant response rating, Corn: 500 g ai/ha, 0 to 100 scale, 0 no effect, 100 complete control
Method in brief: as §1

[8] = system: Galium (catchweed bedstraw, Galium aparine); test: Test A postemergence; settings: postemergence; for Galium plant response rating: 125 g ai/ha, visual injury rating on 0 to 100 scale (0 no effect, 100 complete control), approx. 10 d; for Plant response rating, Galium: 500 g ai/ha, 0 to 100 scale, 0 no effect, 100 complete control
Method in brief: as §1

[9] = system: barnyardgrass (Echinochloa crus-galli); test: Test A postemergence; settings: postemergence; for Barnyardgrass plant response rating: 125 g ai/ha, visual injury rating on 0 to 100 scale (0 no effect, 100 complete control), approx. 10 d; for Plant response rating, Barnyardgrass: 500 g ai/ha, 0 to 100 scale, 0 no effect, 100 complete control
Method in brief: as §1

[10] = system: giant foxtail (Setaria faberii); test: Test A postemergence; settings: postemergence; for Foxtail, Giant plant response rating: 125 g ai/ha, visual injury rating on 0 to 100 scale (0 no effect, 100 complete control), approx. 10 d; for Plant response rating, Foxtail, Giant: 500 g ai/ha, 0 to 100 scale, 0 no effect, 100 complete control
Method in brief: as §1

[11] = system: pigweed (Amaranthus retroflexus); test: Test A preemergence; settings: for Plant response rating, Pigweed: 125 g ai/ha, preemergence, 0 to 100 scale (0 no effect, 100 complete control); for Pigweed plant response rating (0 to 100 scale, 0 is no effect, 100 is complete control): Preemergence, 500 g ai/ha, visual injury approx. 10 d
[12] = system: ryegrass, Italian (Italian ryegrass, Lolium multiflorum); test: Test A preemergence; settings: for Plant response rating, Ryegrass, Italian: 125 g ai/ha, preemergence, 0 to 100 scale (0 no effect, 100 complete control); for Ryegrass, Italian plant response rating (0 to 100 scale, 0 is no effect, 100 is complete control): Preemergence, 500 g ai/ha, visual injury approx. 10 d
Method in brief: as §1

[13] = system: ragweed (common ragweed, Ambrosia elatior); test: Test A preemergence; settings: for Plant response rating, Ragweed: 125 g ai/ha, preemergence, 0 to 100 scale (0 no effect, 100 complete control); for Ragweed plant response rating (0 to 100 scale, 0 is no effect, 100 is complete control): Preemergence, 500 g ai/ha, visual injury approx. 10 d
Method in brief: as §1

[14] = system: Kochia (Kochia scoparia); test: Test A preemergence; settings: for Plant response rating, Kochia: 125 g ai/ha, preemergence, 0 to 100 scale (0 no effect, 100 complete control); for Kochia plant response rating (0 to 100 scale, 0 is no effect, 100 is complete control): Preemergence, 500 g ai/ha, visual injury approx. 10 d
Method in brief: as §1

[15] = system: barnyardgrass (Echinochloa crus-galli); test: Test A preemergence; settings: for Plant response rating, Barnyardgrass: 125 g ai/ha, preemergence, 0 to 100 scale (0 no effect, 100 complete control); for Barnyardgrass plant response rating (0 to 100 scale, 0 is no effect, 100 is complete control): Preemergence, 500 g ai/ha, visual injury approx. 10 d
Method in brief: as §1

[16] = system: giant foxtail (Setaria faberii); test: Test A preemergence; settings: for Plant response rating, Foxtail, Giant: 125 g ai/ha, preemergence, 0 to 100 scale (0 no effect, 100 complete control); for Foxtail, Giant plant response rating (0 to 100 scale, 0 is no effect, 100 is complete control): Preemergence, 500 g ai/ha, visual injury approx. 10 d
Method in brief: as §1

[17] = system: sedge, umbrella (small-flower umbrella sedge, Cyperus difformis); test: Test B flooded paddy test; settings: Flood, 500 g ai/ha; 0 to 100 scale where 0 is no effect and 100 is complete control; 13 to 15 d
Method in brief: (§2)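 Percent control, visually estimated after 13–15 d in the greenhouse on a 0–100 basis, compares treated pots with untreated ones; compound was put into paddy water 3 cm above the soil when plants had two leaves.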

[18] = system: ducksalad (Heteranthera limosa); test: Test B flooded paddy test; settings: Flood, 500 g ai/ha; 0 to 100 scale where 0 is no effect and 100 is complete control; 13 to 15 d
Method in brief: as §2

[19] = system: barnyardgrass (Echinochloa crus-galli); test: Test B flooded paddy test; settings: Flood, 500 g ai/ha; 0 to 100 scale where 0 is no effect and 100 is complete control; 13 to 15 d
Method in brief: as §2

[20] = system: rice (Oryra sativa); test: Test B flooded paddy test; settings: Flood, 500 g ai/ha; 0 to 100 scale where 0 is no effect and 100 is complete control; 13 to 15 d
Method in brief: as §2

Cc1cc(NC(=O)C2C(=O)NCC2c2ccc(F)c(F)c2)ccc1F (stereo not drawn) [Compound 412]
Wheat plant response rating [1]: 0 | Plant response rating, Wheat [1]: 0 | Pigweed plant response rating [2]: 0 | Plant response rating, Pigweed [2]: 0 | Ryegrass, Italian plant response rating [3]: 0 | Plant response rating, Ryegrass, Italian [3]: 0 | Ragweed plant response rating [4]: 0 | Plant response rating, Ragweed [4]: 0 | Kochia plant response rating [5]: 0 | Plant response rating, Kochia [5]: 0 | Blackgrass plant response rating [6]: 0 | Plant response rating, Blackgrass [6]: 0 | Corn plant response rating [7]: 0 | Plant response rating, Corn [7]: 0 | Galium plant response rating [8]: 0 | Plant response rating, Galium [8]: 0 | Barnyardgrass plant response rating [9]: 0 | Plant response rating, Barnyardgrass [9]: 0 | Foxtail, Giant plant response rating [10]: 0 | Plant response rating, Foxtail, Giant [10]: 0 | Plant response rating, Pigweed [11]: 0 | Pigweed plant response rating (0 to 100 scale, 0 is no effect, 100 is complete control) [11]: 0 | Plant response rating, Ryegrass, Italian [12]: 0 | Ryegrass, Italian plant response rating (0 to 100 scale, 0 is no effect, 100 is complete control) [12]: 0 | Plant response rating, Ragweed [13]: 0 | Ragweed plant response rating (0 to 100 scale, 0 is no effect, 100 is complete control) [13]: 0 | Plant response rating, Kochia [14]: 0 | Kochia plant response rating (0 to 100 scale, 0 is no effect, 100 is complete control) [14]: 0 | Plant response rating, Barnyardgrass [15]: 40 | Barnyardgrass plant response rating (0 to 100 scale, 0 is no effect, 100 is complete control) [15]: 70 | Plant response rating, Foxtail, Giant [16]: 60 | Foxtail, Giant plant response rating (0 to 100 scale, 0 is no effect, 100 is complete control) [16]: 70 | Plant response rating, Sedge, Umbrella [17]: 0 | Plant response rating, Ducksalad [18]: 30 | Plant response rating, Barnyardgrass [19]: 0 | Plant response rating, Rice [20]: 0

COc1ccc(NC(=O)C2C(=O)NCC2c2ccc(F)c(F)c2)cc1F (stereo not drawn) [Compound 415]
Wheat plant response rating [1]: 0 | Plant response rating, Wheat [1]: 0 | Pigweed plant response rating [2]: 0 | Plant response rating, Pigweed [2]: 0 | Ryegrass, Italian plant response rating [3]: 0 | Plant response rating, Ryegrass, Italian [3]: 0 | Ragweed plant response rating [4]: 0 | Plant response rating, Ragweed [4]: 0 | Kochia plant response rating [5]: 0 | Plant response rating, Kochia [5]: 0 | Blackgrass plant response rating [6]: 0 | Plant response rating, Blackgrass [6]: 0 | Corn plant response rating [7]: 0 | Plant response rating, Corn [7]: 0 | Galium plant response rating [8]: 0 | Plant response rating, Galium [8]: 0 | Barnyardgrass plant response rating [9]: 0 | Plant response rating, Barnyardgrass [9]: 0 | Foxtail, Giant plant response rating [10]: 0 | Plant response rating, Foxtail, Giant [10]: 0 | Plant response rating, Pigweed [11]: 0 | Pigweed plant response rating (0 to 100 scale, 0 is no effect, 100 is complete control) [11]: 0 | Plant response rating, Ryegrass, Italian [12]: 0 | Ryegrass, Italian plant response rating (0 to 100 scale, 0 is no effect, 100 is complete control) [12]: 0 | Plant response rating, Ragweed [13]: 0 | Ragweed plant response rating (0 to 100 scale, 0 is no effect, 100 is complete control) [13]: 0 | Plant response rating, Kochia [14]: 0 | Kochia plant response rating (0 to 100 scale, 0 is no effect, 100 is complete control) [14]: 0 | Plant response rating, Barnyardgrass [15]: 0 | Barnyardgrass plant response rating (0 to 100 scale, 0 is no effect, 100 is complete control) [15]: 0 | Plant response rating, Foxtail, Giant [16]: 0 | Foxtail, Giant plant response rating (0 to 100 scale, 0 is no effect, 100 is complete control) [16]: 0 | Plant response rating, Sedge, Umbrella [17]: 0 | Plant response rating, Ducksalad [18]: 0 | Plant response rating, Barnyardgrass [19]: 0 | Plant response rating, Rice [20]: 0
